{"source": "paper PMC7580251", "about": "(Clinical cancer research : an official journal of the …, 2017)", "key": {"patients": {"system": "patients", "conditions": "cited from earlier work"}, "[1]": {"system": "recurrent, platinum-resistant ovarian cancer", "conditions": "cited from earlier work"}, "[2]": {"assay": "Plasma pharmacokinetics of veliparib and topotecan", "assay_type": "in vivo, human", "conditions": "for half-life / AUC(0-t): human, plasma; for AUC(0-t): oral"}, "[3]": {"system": "poly(ADP-ribose) (PAR) levels in peripheral blood mononuclear cells", "assay": "PAR levels in PBMCs by sandwich ELISA", "assay_type": "in vivo, human", "conditions": "topotecan alone, Day 30 (Cycle 2 Day 2); of 20 quantifiable pairs"}, "[4]": {"conditions": "daily 1-hour infusion for 5 consecutive days, recurrent platinum-resistant ovarian cancer"}}}
{"molecule": "O=C(c1cc(Cc2n[nH]c(=O)c3ccccc23)ccc1F)N1CCN(C(=O)C2CC2)CC1", "note": "[olaparib]", "values": [{"measurement": "RP2D of the combination, olaparib dose", "setting": "patients; per dose, twice daily days 1–5, with irinotecan every two weeks", "result": 50, "unit": "mg"}]}
{"molecule": "CC[C@@]1(O)C(=O)OCc2c1cc1n(c2=O)Cc2cc3c(CN(C)C)c(O)ccc3nc2-1", "note": "[topotecan]", "values": [{"measurement": "median overall survival", "setting": "[1]; [4]", "result": 57, "unit": "weeks"}, {"measurement": "overall response rate", "setting": "[1]; [4]", "result": 17, "unit": "%"}, {"measurement": "women with myelosuppression", "setting": "[1]; daily x 5 topotecan", "result": "up to 75%"}, {"measurement": "response rate", "setting": "[1]; phase II, days 1, 8, 15 of a 28-day cycle, platinum refractory/resistant ovarian cancer", "result": 18, "unit": "%"}, {"measurement": "grade 4 toxicities", "setting": "[1]; phase II, days 1, 8, 15 of a 28-day cycle, myelosuppression mild", "result": "no grade 4 toxicities observed"}, {"measurement": "half-life", "setting": "[2]; iv", "result": "2.7 ± 0.6", "unit": "h"}, {"measurement": "plasma clearance, mean (± SD)", "setting": "[2]; topotecan administered alone on Cycle 2, iv", "result": "10.1 ± 3.8", "unit": "L/hr/m^2"}, {"measurement": "single-agent MTD", "setting": "patients; weekly topotecan (days 2, 9 and 16)", "result": 4, "unit": "mg/m^2"}, {"measurement": "sample pairs with decreased PAR levels", "setting": "[3]", "result": 7}, {"measurement": "sample pairs with increased PAR levels", "setting": "[3]", "result": 11}, {"measurement": "sample pairs with unchanged PAR levels", "setting": "[3]", "result": 2}]}
{"molecule": "C[C@]1(c2nc3c(C(N)=O)cccc3[nH]2)CCCN1", "note": "[veliparib]", "values": [{"measurement": "AUC(0-t)", "setting": "[2]; 10 mg", "result": "351 ± 69", "unit": "ng·h/mL"}, {"measurement": "AUC(0-t)", "setting": "[2]; 300 mg", "result": "15000 ± 3090", "unit": "ng·h/mL"}, {"measurement": "half-life", "setting": "[2]; po", "result": "6.1 ± 2.8", "unit": "h"}, {"measurement": "single agent MTD", "setting": "patients; veliparib bid", "result": 400, "unit": "mg"}]}
